What was measured:
[1] = NETTER-2 worst post-baseline hematology abnormalities based on CTC grades (Safety Set); type: in vivo, human; conditions: randomized treatment period; for Worst post-baseline abnormality: Hemoglobin (g/L)-Decrease / Worst post-baseline abnormality: Hemoglobin (g/L)-Increase / Worst post-baseline abnormality: Leukocytes (10E9/L)-Decrease / Worst post-baseline abnormality: Leukocytes (10E9/L)-Increase / Worst post-baseline abnormality: Lymphocytes (10E9/L)-Decrease / Worst post-baseline abnormality: Lymphocytes (10E9/L)-Increase / Worst post-baseline abnormality: Neutrophils (10E9/L)-Decrease / Worst post-baseline abnormality: Platelets (10E9/L)-Decrease: Safety Set
Source text: The laboratory assessments require that blood samples for hematology and blood chemistry, and a urine sample for urinalysis are taken. Laboratory assessments will be performed at the investigational site.
Blood tests performed 4 weeks after any treatment cannot serve as baseline values for the next treatment.
All laboratory data will be listed by treatment group, subject, and visit/time and if normal ranges are available abnormalities will be flagged. Summary statistics will be provided by treatment and visit/time. Shift tables using the low/normal/high/(low and high) classification will be used to compare baseline to the worst on-treatment value.
Grading of laboratory values will be assigned programmatically as per NCI Common Terminology Criteria for Adverse Events (CTCAE) version 5.0 or current version. The calculation of CTCAE grades will be based on the observed laboratory values only, clinical assessments will not be taken into account.
The following summaries will be generated separately for hematology, and biochemistry tests: • 1. Listing of all laboratory data with values flagged to show the corresponding CTCAE grades if applicable and the classifications relative to the laboratory normal ranges • 2. For laboratory tests where grades are defined by CTCAE, • 3. Worst post-baseline CTCAE grade (regardless of the baseline status). Each subject will be counted only once for the worst grade observed post-baseline. • 4. Shift tables using CTCAE grades to compare baseline to the worst on-treatment value • 5. For laboratory tests where grades are not defined by CTCAE, • 6. Shift tables using the low/normal/high/(low and high) classification to compare baseline to the worst on-treatment value.

midgut carcinoid tumors = conditions: cited from earlier work
metastatic midgut NET = conditions: 30 mg/month, cited from earlier work
[2] = NETTER-2 serious adverse events in the randomized treatment period (Safety Set)
Source text: All adverse events (AEs), whether or not spontaneously reported by the patient, will be recorded starting from the signing of the ICF until the end of the Treatment Phase. Safety summaries (tables, figures) include only data from the on-treatment period with the exception of baseline data which will also be summarized where appropriate (e.g. change from baseline summaries). In addition, a separate summary for death including on treatment and post treatment deaths will be provided. In particular, summary tables for adverse events (AEs) will summarize only on-treatment events, with a start date during the on-treatment period (treatment-emergent AEs).
Separate summaries will be provided for study medication related adverse events, death, serious adverse events, other significant adverse events leading to discontinuation and adverse events leading to dose adjustment.

[3] = NETTER-2 deaths (Safety Set); type: in vivo, human
[4] = All grades, randomized treatment period, Safety Set
[5] = Grade >=3, randomized treatment period, Safety Set
[6] = randomized treatment period, Safety Set

C[C@@H](O)[C@@H]1NC(=O)[C@H](CCCCN)NC(=O)[C@@H](Cc2c[nH]c3ccccc23)NC(=O)[C@H](Cc2ccccc2)NC(=O)[C@@H](NC(=O)[C@H](N)Cc2ccccc2)CSSC[C@@H](C(=O)N[C@H](CO)[C@@H](C)O)NC1=O [Octreotide LAR, octreotide]
8 (11.0) n (%): Number of subjects who died in the post-treatment follow up period, primary reason Disease under Study ([3]; Safety Set)
8.4 months: median time free from relapse (midgut carcinoid tumors; NETTER-1 control arm, high dose (60 mg))
19.2%: subjects died during the study ([3]; during the study)
4 (5.5) n (%): Number of Subjects who Died on-treatment in randomized treatment period (within 30 days of last dose), primary reason Disease under Study ([3]; Safety Set)
70: confirmed events (disease progressions RECIST 1.1 centrally assessed or deaths) (midgut carcinoid tumors; NETTER-1)
0 n (%): Worst post-baseline abnormality: Leukocytes (10E9/L)-Increase ([1]; All grades (CTCAE v5.0)) | Worst post-baseline abnormality: Hemoglobin (g/L)-Increase ([1]; Grade 3/4 (CTCAE v5.0)) | Worst post-baseline abnormality: Leukocytes (10E9/L)-Decrease ([1]; Grade 3/4 (CTCAE v5.0)) | Worst post-baseline abnormality: Leukocytes (10E9/L)-Increase ([1]; Grade 3/4 (CTCAE v5.0)) | Worst post-baseline abnormality: Lymphocytes (10E9/L)-Increase ([1]; Grade 3/4 (CTCAE v5.0)) | Worst post-baseline abnormality: Neutrophils (10E9/L)-Decrease ([1]; Grade 3/4 (CTCAE v5.0)) | Worst post-baseline abnormality: Platelets (10E9/L)-Decrease ([1]; Grade 3/4 (CTCAE v5.0)) | Fatal SAEs Related to Any Treatment [2, 4] | Fatal SAEs Related to Octreotide [2, 4] | Serious adverse event: Abdominal pain [2, 4] | Serious adverse event: Gastrointestinal stoma complication [2, 4] | Serious adverse event: Pyrexia [2, 4] | Serious adverse event: Small intestinal obstruction [2, 4] | Fatal SAEs Related to Any Treatment [2, 5] | Fatal SAEs Related to Octreotide [2, 5] | Serious adverse event: Abdominal pain [2, 5] | Serious adverse event: Acute coronary syndrome [2, 5] | Serious adverse event: Femur fracture [2, 5] | Serious adverse event: Gastrointestinal stoma complication [2, 5] | Serious adverse event: Pyrexia [2, 5] | Serious adverse event: Small intestinal obstruction [2, 5] | SAE with fatal outcome: Blood bilirubin increased [2, 6] | SAE with fatal outcome: Dyspnoea [2, 6] | SAE with fatal outcome: Intestinal perforation [2, 6]
14 (19.2) n (%): Number of Subjects who Died (Overall) ([3]; Safety Set)
2 (2.7) n (%): Worst post-baseline abnormality: Hemoglobin (g/L)-Increase ([1]; All grades (CTCAE v5.0)) | Worst post-baseline abnormality: Hemoglobin (g/L)-Decrease ([1]; Grade 3/4 (CTCAE v5.0)) | Worst post-baseline abnormality: Lymphocytes (10E9/L)-Decrease ([1]; Grade 3/4 (CTCAE v5.0)) | Fatal SAEs [2, 4] | Fatal SAEs [2, 5] | SAEs with fatal outcome [2, 6] | SAEs with fatal outcome reported in subjects with primary reason for death = Disease under Study [2, 6]
9 (12.3) n (%): Worst post-baseline abnormality: Neutrophils (10E9/L)-Decrease ([1]; All grades (CTCAE v5.0)) | Number of subjects who died in the post-treatment follow up period ([3]; Safety Set)
1.4%: Serious AEs, Treatment-related ([2]; randomized treatment period) | cause of death: adverse event ([3]; during the study)
15 (20.5) n (%): Worst post-baseline abnormality: Leukocytes (10E9/L)-Decrease ([1]; All grades (CTCAE v5.0)) | Worst post-baseline abnormality: Platelets (10E9/L)-Decrease ([1]; All grades (CTCAE v5.0))
3 (4.1) n (%): Worst post-baseline abnormality: Lymphocytes (10E9/L)-Increase ([1]; All grades (CTCAE v5.0))
45 (61.6) n (%): Worst post-baseline abnormality: Lymphocytes (10E9/L)-Decrease ([1]; All grades (CTCAE v5.0))
1 (1.4) n (%): SAEs Related to Any Treatment [2, 4] | SAEs Related to Octreotide [2, 4] | Serious adverse event: Abdominal sepsis [2, 4] | Serious adverse event: Acute coronary syndrome [2, 4] | Serious adverse event: Acute kidney injury [2, 4] | Serious adverse event: Anaemia [2, 4] | Serious adverse event: Ascites [2, 4] | Serious adverse event: Blood bilirubin increased [2, 4] | Serious adverse event: Carcinoid heart disease [2, 4] | Serious adverse event: Carcinoid syndrome [2, 4] | Serious adverse event: Diarrhoea [2, 4] | Serious adverse event: Femur fracture [2, 4] | Serious adverse event: Gastroenteritis [2, 4] | Serious adverse event: Generalised oedema [2, 4] | Serious adverse event: Hip fracture [2, 4] | Serious adverse event: Hyperglycaemia [2, 4] | Serious adverse event: Hypertension [2, 4] | Serious adverse event: Hypoalbuminaemia [2, 4] | Serious adverse event: Intestinal obstruction [2, 4] | Serious adverse event: Jaundice [2, 4] | Serious adverse event: Lower gastrointestinal haemorrhage [2, 4] | Serious adverse event: Metabolic encephalopathy [2, 4] | Serious adverse event: Oedema peripheral [2, 4] | Serious adverse event: Pleurisy [2, 4] | Serious adverse event: Tumour lysis syndrome [2, 4] | SAEs Related to Any Treatment [2, 5] | SAEs Related to Octreotide [2, 5] | Serious adverse event: Abdominal sepsis [2, 5] | Serious adverse event: Acute kidney injury [2, 5] | Serious adverse event: Anaemia [2, 5] | Serious adverse event: Ascites [2, 5] | Serious adverse event: Blood bilirubin increased [2, 5] | Serious adverse event: Carcinoid heart disease [2, 5] | Serious adverse event: Carcinoid syndrome [2, 5] | Serious adverse event: Diarrhoea [2, 5] | Serious adverse event: Gastroenteritis [2, 5] | Serious adverse event: Generalised oedema [2, 5] | Serious adverse event: Hip fracture [2, 5] | Serious adverse event: Hyperglycaemia [2, 5] | Serious adverse event: Hypertension [2, 5] | Serious adverse event: Hypoalbuminaemia [2, 5] | Serious adverse event: Intestinal obstruction [2, 5] | Serious adverse event: Jaundice [2, 5] | Serious adverse event: Lower gastrointestinal haemorrhage [2, 5] | Serious adverse event: Metabolic encephalopathy [2, 5] | Serious adverse event: Oedema peripheral [2, 5] | Serious adverse event: Pleurisy [2, 5] | Serious adverse event: Tumour lysis syndrome [2, 5] | SAE with fatal outcome: Diarrhoea [2, 6] | SAE with fatal outcome: Tumor Lysis syndrome [2, 6] | Number of Subjects who Died (Overall), primary reason Adverse Event ([3]; Safety Set) | Number of Subjects who Died on-treatment in cross-over period (within 30 days of last dose), primary reason Disease under Study ([3]; Safety Set) | Number of subjects who died in the post-treatment follow up period, primary reason Adverse Event ([3]; Safety Set)
42 (57.5) n (%): Worst post-baseline abnormality: Hemoglobin (g/L)-Decrease ([1]; All grades (CTCAE v5.0))
0 (%): Incidence of SAEs: Small intestinal obstruction ([2]; most frequent SAE, summary table)
14.3 months: time to tumor progression (metastatic midgut NET; 42 patients)
2.7%: Grade 3/4 hematologic lab abnormality: lymphocytes decrease [1]
8.5 months: median PFS (midgut carcinoid tumors; NETTER-1)
20.5%: Serious AEs ([2]; randomized treatment period)
67%: patients achieving stable disease (metastatic midgut NET)
5.5%: subjects died within 30 days after the last dose ([3]; randomized treatment period)

Reference: US20250099634A1, “METHOD OF TREATING CANCER” (Novartis AG, priority 2023, published 2025)
